In US20180106782A1, “HIGH THROUGHPUT CARDIOTOXICITY SCREENING PLATFORM” (The Board of Trustees of the Leland Stanford Junior …, priority 2016, published 2018):

Tested on: μpatterned hiPSC-CMs
Test: movement of LifeAct-labeled myofibrils in beating μpatterned hiPSC-CMs (cross-correlation, Ncorr)
Assay type: cell-based, human
Settings: for aδ (temporal asynchronicity) / d (displacement) / VR (peak velocity of relaxation) / VC (peak velocity of contraction) / aθ (spatial asynchronicity): LifeAct, single cell
Description: We fluorescently labeled actin with LifeAct in live hiPSC-CMs to image myofibrils and sarcomeres as described before. (Ribeiro 2015a) For this effect, we incubated hiPSC-CMs with the adenovirus rAV CAG-LifeAct-TagRFP (Ibidi; 1×10^5 IU/mL in cell-culture medium) overnight at 37° C. in a humid 5% CO2 atmosphere. We then washed cells once with PBS at 37° C. and added new medium. We observed actin labeled in sarcomeres after 2 days of adding the adenovirus to the culture medium. To induce contractile changes in hiPSC-CMs, we added drugs known to affect CM contractile machinery to the culture medium. We analyzed the mechanical output of cells after adding drugs. […] We exposed single cells to concentrations of 0.1 μM and then 1 μM of isoproterenol (Sigma, Saint Louis, Mo.) to test how the contractile activity of each cell varied after adding different amounts of isoproterenol to the medium. Omecamtiv mecarbil (Adooq Bioscience, Irvine, Calif.) was also added to the cell culture medium at 10 nM or 0.1 μM to detect different variations in the contractile response of hiPSC-CMs after adding one of these concentrations. We acquired videos of single beating hiPSC-CMs imaged with differential interference contrast microscopy at frame rates higher than 30 fps for a time between 4 and 10 s. We used MATLAB (R2014b version, Mathworks) to convert pixels of each frame to microns. Zeiss files (.czi) contained information on the pixel dimensions and were imported into MATLAB using the Bioformats package. ([…] 2010) We also confirmed the software calibration with calibration slides (Electron Microscopy Sciences). For each video of a beating single cell, we selected a region of interest (ROI) around the borders of the cell and analyzed average displacements within this ROI (FIG. 1B). For this purpose, we selected a baseline frame, within all the frames of the video, which represented the relaxed state of the cell and calculated average displacement within the ROI for the remaining frames relative to the baseline frame. As noted bellow, this procedure was automated. We then calculated displacements from microscopy videos with cross-correlation approaches: digital image correlation (DIC) and particle image velocimetry (PIV) approaches. […] Cross-correlation is done between sub-blocks of the image and the highest correlation indicates the maximum likelihood that blocks match. We tested the following cross-correlation algorithms: PIVIab, ImageJ PIV (Tseng 2012) and Ncorr. PIVIab and Ncorr were written in MATLAB, while ImageJ PIV is a plugin for ImageJ (NIH). Ncorr generally performs better, but uses more computational time. (Blaber 2015) We measured two parameters of asynchronicity of contractile movement within the ROI: spatial asynchronicity (aθ) of contractile movement and temporal asynchronicity (aδ) of contractile movement. Spatial synchronicity occurs when the different regions of the cell move along the same directions and temporal synchronicity occurs when all the regions of the cell move at the same time. To calculate aθ, we first computed the direction of movement (θ) for every movement vector of different regions i inside the ROI (FIG. 1B) at each frame as defined by The second approach performed better for analyzing sarcomere lengths in videos of LifeAct labeled beating cells. This approach was applied to different frames in a video to determine how the different properties measure with traction force microscopy or from cell movement related to sarcomere size, movement and orientation during the contractile cycle. Most of the tested approaches relied on successful skeletonization of each frame, which may not be perfect due to noise or inconsistent illumination. To quantitatively compare different skeletons from different frames in a video, we generated a master skeleton based on the skeletons generated from all frames. […]

## CC(C)NCC(O)c1ccc(O)c(O)c1 (stereo not drawn) [isoproterenol]
ISO 0.1 (μM per FIG. 4), no ISO: 0.1
  aδ (temporal asynchronicity): 0.31 s
ISO 0.1 (μM per FIG. 4), no ISO: 1.22
  d (displacement): 1.43 μm
ISO 0.1 (μM per FIG. 4), no ISO: 2.54
  VR (peak velocity of relaxation): 3.45 μm/s
ISO 0.1 (μM per FIG. 4), no ISO: 2.63
  VC (peak velocity of contraction): 4.78 μm/s
ISO 0.1 (μM per FIG. 4), no ISO: 55.4
  aθ (spatial asynchronicity): 19.5 °
ISO 1 (μM per FIG. 4), no ISO: 0.1
  aδ (temporal asynchronicity): 0.28 s
ISO 1 (μM per FIG. 4), no ISO: 1.22
  d (displacement): 0.71 μm
ISO 1 (μM per FIG. 4), no ISO: 2.54
  VR (peak velocity of relaxation): 2.05 μm/s
ISO 1 (μM per FIG. 4), no ISO: 2.63
  VC (peak velocity of contraction): 2.02 μm/s
ISO 1 (μM per FIG. 4), no ISO: 55.4
  aθ (spatial asynchronicity): 20.8 °

## COC(=O)N1CCN(Cc2cccc(NC(=O)Nc3ccc(C)nc3)c2F)CC1 [omecamtiv mecarbil]
0.1 μM omecamtiv mecarbil, acute, single cell (FIG. 6B)
  acute changes in sarcomere organization and movement: oscillatory contractions of sarcomeres and overlap between sarcomeres
0.1 μM omecamtiv mecarbil, chronic, 2 minutes after adding (FIG. 6C)
  chronic effects on the organization of myofibrils: myofibril damaging
0.1 μM omecamtiv mecarbil, single cell (FIG. 6F)
  acute values of dmax and br from myofibril movement: slightly increased
0.1 μM omecamtiv mecarbil, single cell (FIG. 6G)
  acute VC and VR from myofibril movement: no considerable acute variations
OM 0.1 μM (FIG. 6), row 'acute', no OM: 0.05
  aδ (temporal asynchronicity): 0.89 s
OM 0.1 μM (FIG. 6), row 'acute', no OM: 1.03
  d (displacement): 0.25 μm
OM 0.1 μM (FIG. 6), row 'acute', no OM: 2.2
  VR (peak velocity of relaxation): 0.51 μm/s
OM 0.1 μM (FIG. 6), row 'acute', no OM: 2.25
  VC (peak velocity of contraction): 0.54 μm/s
OM 0.1 μM (FIG. 6), row 'acute', no OM: 36.3
  aθ (spatial asynchronicity): 40.9 °
OM 0.1 μM (FIG. 6), row 'chronic', no OM: 0.05
  aδ (temporal asynchronicity): 0.88 s
OM 0.1 μM (FIG. 6), row 'chronic', no OM: 1.03
  d (displacement): 0.93 μm
OM 0.1 μM (FIG. 6), row 'chronic', no OM: 2.2
  VR (peak velocity of relaxation): 1.63 μm/s
OM 0.1 μM (FIG. 6), row 'chronic', no OM: 2.25
  VC (peak velocity of contraction): 2.2 μm/s
OM 0.1 μM (FIG. 6), row 'chronic', no OM: 36.3
  aθ (spatial asynchronicity): 17.1 °
